Measured values as given in patent US9150579B2, “Selective PI3K delta inhibitors” (Rhizen Pharmaceuticals SA, priority 2012, dated 2015).
“Also recorded” adds a separate entry of the source.

Key:
[1] = Metabolic stability in mouse liver microsomes; type: in vitro ADME; settings: 1 μM test item, 60 minutes, NADPH
Experimental: Metabolic stability studies were conducted using mouse, rat, and human liver microsomes. The protocol for the studies with mouse, rat, and human liver microsomes (all from BD Gentest, USA) is provided below. In brief, 0.4 mg protein was preincubated with 2 mM NADPH (cofactor) in phosphate buffer (pH˜7.4) for 15 min at 37° C. and then added with 1 μM test item and incubated further for 60 minutes in triplicate. The reaction mixture was terminated with methanol containing an internal standard and centrifuged further to analyze the test item remaining in the supernatant by LC-MS/MS. The percent parent compound remaining was calculated in comparison with similar samples terminated at 0 minutes.

PI3K delta = PI3K delta (Homo sapiens (Human), UniProt O00329); assay: Assay 1: Fluorescent (HTRF) determination of PI3K enzyme activity, delta; type: biochemical
Experimental: (§1) The homogenous time resolved fluorescence (HTRF) assay allows detection of 3,4,5-triphosphate (PIP3) formed as a result of phosphorylation of phosphotidylinositol 4,5-biphosphate (PIP2) by PI3K isoforms such as α, β, γ or δ.
(§2) PI3K isoform activity for α, β, γ or δ was determined using a PI3K human HTRF™ Assay Kit (Millipore, Billerica, Mass.) with modifications. All incubations were carried out at room temperature. […] After the initial incubation, 5 μl/well of 400 μM ATP was added and incubated for an additional 30 minutes. Reaction was terminated by adding 5 μl/well stop solution (Millipore, Billerica, Mass.). Five microliters of detection mix (Millipore, Billerica, Mass.) were then added to each well and was incubated for 6-18 h in the dark. HRTF ratio was measured on a microplate reader (BMG Labtech., Germany) at an excitation wavelength of 337 nm and emission wavelengths of 665 and 620 nm with an integration time of 400 μsec.

PI3K α = PI3K α (Homo sapiens (Human), UniProt P42336); assay: Assay 1: Fluorescent (HTRF) determination of PI3K enzyme activity, alpha; type: biochemical
Experimental: as §1
as §2, with “dark.” for “dark. HRTF ratio was measured on a microplate reader (BMG Labtech., Germany) at an excitation wavelength of 337 nm and emission wavelengths of 665 and 620 nm with an integration time of 400 μsec.”

[2] = test system: AKT phosphorylation in THP-1, HL-60, MOLT-4, RPMI-8226, or DLBCL cells; assay: Assay 3: Inhibition of AKT phosphorylation in leukemic cell lines; type: cell-based; settings: 48 hours, Western Blotting
Experimental: Inhibition of AKT phosphorylation in leukemic cell lines: THP-1, HL-60, MOLT-4, RPMI-8226, or DLBCL cells were incubated with desired concentrations of compound for 48 hours. Cells were lysed and pAKT was determined by Western Blotting. Bands were quantified using ImageJ and normalized to actin.

PI3Kδ = PI3Kδ (Homo sapiens (Human), UniProt O00329); assay: Assay 4a: IgM-induced B cell proliferation assay (PI3Kδ); settings: Cell-based
Experimental: Compound specificity towards PI3Kδ was determined in an IgM-induced B cell proliferation assay. B-cells isolated from blood of healthy subjects were seeded in a 96-well tissue culture plate and incubated with desired concentrations of compound for 30 min. Cells were stimulated with 5 μg/ml purified goat anti-human IgM. Growth was assessed using the 3-[4,5-dimethylthiazol-2-yl]-2,5-diphenyltetrazolium bromide (MTT) dye reduction test. For selectivity against PI3K α, β, or γ isoforms, NIH-3T3 or RAW macrophages were seeded in a 6-well tissue culture plate and incubated overnight. Complete medium was replaced with serum-free media the following day and compound at the desired concentrations were added. After 15 minutes, 20 ng/ml PDGF, 5 μM LPA, or 50 ng/ml c5a was added and incubated for an additional 10 minutes. Cells were lysed and AKT phosphorylation was determined by Western Blotting. Intensity of the bands was determined using ImageJ 1.42q (NIH, USA) and normalized to Actin (loading control).

leukemic cells = assay: Assay 5: Apoptosis in leukemic cell lines (in situ Caspase 3 kit); type: cell-based; settings: 24 hrs
Experimental: Apoptosis in leukemic cells was determined using an in situ Caspase 3 kit (Millipore, US) as outlined below: • Seed leukemic cells at a density of 1×10^6 cells/well in a 6 well plate • Add test compound/DMSO at desired concentrations • Incubate the plate for 24 hrs at 37° C. in 5% CO2 incubator • Collect cells in a 2 ml centrifuge tube • Add 1.6 μL of freshly prepared 5× FLICA reagent and mix cells by slightly flicking the tubes • Incubate tubes for 1 hour at 37° C. under 5% CO2 • Add 2 ml of 1× wash buffer to each tube and mix • Centrifuge cells at <400×g for 5 minutes at room temperature. • Carefully remove and discard supernatant, and gently vortex cell pellet to disrupt any cell-to-cell clumping. • Resuspend cell pellet in 300 ul of 1× wash buffer • Place 100 μL of each cell suspension into each of two wells of a black microtiter plate. Avoid creation of bubbles. • Read […] of each microwell using an excitation wavelength of 490 nm and an emission wavelength of 520 nm • Percent increase in caspase-3 activity manifested by an increase in fluorescence compared to the control blank is to be calculated.

[3] = test system: AML patient bone marrow leukemic cells; assay: Assay 6-III: Cell proliferation analysis of AML patient bone marrow sample (MTS); type: cell-based, human
Experimental: 6-III: Cell proliferation analysis of AML patient bone marrow sample using MTS assay: Mononuclear cells were extracted by the Ficoll method and seeded in plates. The cells were treated by different compounds for 48 hrs and 72 hrs before they were analyzed by MTS assay following product instruction. Briefly, 20 μL of the MTS solution was added into each well containing the 100 μL cell suspension, followed by incubation for 4 hours at 37° C., in 95% humidity with presence of 5% CO2. The absorbance of 490 nm (A490) was read using SpectraMAX Plus microplate spectrophotometer.

[4] = test system: PI3Kδ signalling in basophils; assay: Assay 4: Inhibition of PI3Kδ signalling in basophils from human whole blood (anti-FcεR1 induced CD63 expression); settings: read-out: EC50, inhibition of anti-FcεR1 mediated CD63 expression
Experimental: PI3Kδ signalling in basophils manifested by an alteration of anti-FcεR1 induced CD63 expression is a useful pharmacodynamic marker determined using the Flow2CAST® kit (Buhlmann Laboratories, Switzerland). Briefly, it involves the following steps: • Mix the anti-coagulated blood sample by inverting the venipuncture tube several times • Prepare fresh and pyrogen-free 3.5 ml polypropylene or polystyrene tubes suitable for Flow Cytometry measurements • Add 49 μl of patient's whole blood to each tube. • Add 1 μl of 10% DMSO (background) or compound (10% DMSO) to the assigned tubes and mix gently. Incubate at room temperature for 15 min • Pipette 50 μl of the Stimulation buffer (background) or anti-FcεRI Ab to each tube • Add 100 μl of Stimulation Buffer to each tube • Mix gently. […] (using an incubator will take about 10 minutes longer incubation time due to less efficient heat transfer) • Add 2 ml pre-warmed (18-28° C.) Lysing Reagent to each tube, mix gently • Incubate for 5-10 minutes at 18-28° C. • Centrifuge the tubes for 5 minutes at 500×g • Decant the supernatant by using blotting paper • Resuspend the cell pellet with 300-800 μl of Wash Buffer • Vortex gently and acquire the data on the flow cytometer within the same day. • Percent CD63 positive cells within the gated basophil population are to be determined in different treatment groups and normalized to vehicle control.

Chain of PI3K α (P42336 whole entry): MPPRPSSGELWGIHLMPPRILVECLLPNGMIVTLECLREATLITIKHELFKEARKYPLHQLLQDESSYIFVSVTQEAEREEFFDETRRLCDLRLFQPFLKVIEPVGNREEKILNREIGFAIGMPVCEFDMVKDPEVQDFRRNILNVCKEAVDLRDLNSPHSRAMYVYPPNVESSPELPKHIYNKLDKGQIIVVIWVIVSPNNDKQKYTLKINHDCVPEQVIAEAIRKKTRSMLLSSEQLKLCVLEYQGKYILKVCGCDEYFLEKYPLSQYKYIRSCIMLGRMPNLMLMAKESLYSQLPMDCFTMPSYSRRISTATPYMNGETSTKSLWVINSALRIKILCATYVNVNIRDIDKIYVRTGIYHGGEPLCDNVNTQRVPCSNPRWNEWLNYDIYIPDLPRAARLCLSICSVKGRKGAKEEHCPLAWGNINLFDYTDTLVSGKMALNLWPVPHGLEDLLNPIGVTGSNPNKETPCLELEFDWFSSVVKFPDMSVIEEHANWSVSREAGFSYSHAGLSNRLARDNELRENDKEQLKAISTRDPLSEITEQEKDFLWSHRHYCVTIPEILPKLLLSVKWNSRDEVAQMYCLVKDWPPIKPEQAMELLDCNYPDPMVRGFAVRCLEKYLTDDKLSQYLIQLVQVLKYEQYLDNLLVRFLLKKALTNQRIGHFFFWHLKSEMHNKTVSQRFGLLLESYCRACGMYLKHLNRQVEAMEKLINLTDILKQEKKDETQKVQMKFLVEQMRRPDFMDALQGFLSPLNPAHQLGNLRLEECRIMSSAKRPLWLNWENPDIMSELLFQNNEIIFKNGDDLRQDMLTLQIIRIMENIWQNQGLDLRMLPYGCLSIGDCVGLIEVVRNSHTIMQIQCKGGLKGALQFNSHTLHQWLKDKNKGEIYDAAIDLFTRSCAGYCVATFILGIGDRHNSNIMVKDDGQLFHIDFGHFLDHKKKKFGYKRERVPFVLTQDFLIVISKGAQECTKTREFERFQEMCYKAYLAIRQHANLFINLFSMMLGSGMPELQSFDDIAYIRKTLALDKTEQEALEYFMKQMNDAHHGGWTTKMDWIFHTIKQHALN
Chain of PI3K α (P27986 whole entry partner): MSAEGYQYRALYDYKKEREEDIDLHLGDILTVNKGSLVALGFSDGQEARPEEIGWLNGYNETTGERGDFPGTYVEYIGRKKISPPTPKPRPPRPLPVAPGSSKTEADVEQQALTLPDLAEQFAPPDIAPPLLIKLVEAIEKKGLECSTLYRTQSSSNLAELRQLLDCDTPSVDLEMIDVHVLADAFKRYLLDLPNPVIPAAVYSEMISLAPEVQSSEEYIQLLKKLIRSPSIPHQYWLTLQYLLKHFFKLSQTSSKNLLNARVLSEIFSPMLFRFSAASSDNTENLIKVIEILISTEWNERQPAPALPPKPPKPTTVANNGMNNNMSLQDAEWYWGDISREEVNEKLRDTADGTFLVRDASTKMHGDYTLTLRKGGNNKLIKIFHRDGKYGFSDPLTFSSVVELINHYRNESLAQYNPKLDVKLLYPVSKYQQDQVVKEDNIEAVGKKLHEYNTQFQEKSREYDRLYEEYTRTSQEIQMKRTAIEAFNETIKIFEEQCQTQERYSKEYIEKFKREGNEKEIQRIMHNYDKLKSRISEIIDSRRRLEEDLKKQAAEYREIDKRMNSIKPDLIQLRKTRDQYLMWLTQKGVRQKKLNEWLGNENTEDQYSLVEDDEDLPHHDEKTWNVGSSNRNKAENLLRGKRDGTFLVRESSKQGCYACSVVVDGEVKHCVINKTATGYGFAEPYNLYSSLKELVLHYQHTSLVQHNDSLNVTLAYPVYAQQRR
Chain of PI3Kδ (O00329 whole entry, canonical isoform): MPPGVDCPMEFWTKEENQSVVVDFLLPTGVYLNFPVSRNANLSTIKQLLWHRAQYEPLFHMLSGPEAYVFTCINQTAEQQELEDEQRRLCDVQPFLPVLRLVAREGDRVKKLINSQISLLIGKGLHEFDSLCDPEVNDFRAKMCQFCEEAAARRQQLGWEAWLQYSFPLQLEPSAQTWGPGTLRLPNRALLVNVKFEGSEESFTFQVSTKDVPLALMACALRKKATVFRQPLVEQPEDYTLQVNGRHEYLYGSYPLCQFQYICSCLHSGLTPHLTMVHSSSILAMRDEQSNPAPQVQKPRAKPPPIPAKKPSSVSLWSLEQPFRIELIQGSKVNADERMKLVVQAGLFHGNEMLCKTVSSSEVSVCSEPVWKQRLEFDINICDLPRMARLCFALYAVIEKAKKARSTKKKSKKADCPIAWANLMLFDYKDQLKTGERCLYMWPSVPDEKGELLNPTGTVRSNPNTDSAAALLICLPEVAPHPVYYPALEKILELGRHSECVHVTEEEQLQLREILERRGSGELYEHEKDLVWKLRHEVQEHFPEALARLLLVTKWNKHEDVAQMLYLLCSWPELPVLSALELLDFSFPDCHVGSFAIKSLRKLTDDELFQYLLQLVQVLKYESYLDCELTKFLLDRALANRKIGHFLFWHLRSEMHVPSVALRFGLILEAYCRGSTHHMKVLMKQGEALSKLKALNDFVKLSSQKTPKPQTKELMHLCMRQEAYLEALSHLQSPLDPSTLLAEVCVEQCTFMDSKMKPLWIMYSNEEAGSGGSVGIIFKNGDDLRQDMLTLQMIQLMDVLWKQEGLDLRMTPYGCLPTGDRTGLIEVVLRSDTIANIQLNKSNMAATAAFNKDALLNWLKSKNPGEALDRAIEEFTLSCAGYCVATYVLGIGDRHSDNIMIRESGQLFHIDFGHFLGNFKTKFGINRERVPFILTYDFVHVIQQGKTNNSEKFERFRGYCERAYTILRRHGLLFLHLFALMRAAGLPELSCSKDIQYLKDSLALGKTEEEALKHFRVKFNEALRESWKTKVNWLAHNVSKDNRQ
Chain of PI3Kδ (P27986 whole entry partner, canonical isoform): as the sequence (P27986 whole entry partner) above
Chain of PI3K delta (O00329 whole entry, canonical isoform): as the sequence (O00329 whole entry, canonical isoform) above
Chain of PI3K delta (P27986 whole entry partner, canonical isoform): as the sequence (P27986 whole entry partner) above

Metabolic stability in liver microsomes, Mouse (percent parent compound remaining) [1]: 46.1%
IC50 (PI3K delta): 13.8 nM
inhibition at 1 µM (PI3K α): 8.91%
Fold-Selectivity PI3Kα (PI3K α; Enzyme, versus PI3Kδ): >1000 fold
EC50 (PI3Kδ): < 50 nM
EC50 [4]: ≤ 100 nM
SMILES: CC(C)Oc1ccc(-c2nn([C@@H](C)c3oc4ccccc4c(=O)c3-c3cccc(F)c3)c3ncnc(N)c23)cc1F [Compound A1, (S)-2-(1-(4-amino-3-(3-fluoro-4-isopropoxyphenyl)-1H-pyrazolo[3,4-d]pyrimidin-1-yl)ethyl)-3-(3-fluorophenyl)-4H-chromen-4-one]
inhibition at 1 µM [2]: 50 to 90%
Caspase-3 activity (leukemic cells): dose-dependently induced Caspase-3 activity
cell viability / proliferation [3]: dose dependent reduction in proliferation; also recorded: Dose dependent reduction in cell viability
